Literature values, collected in patent US20160038452A1, “Methods for Administering a Depot of Disulfiram” (priority 2014, published 2016).

How the values were obtained:
[1] = deep intramuscular injection, compared with patients on oral disulfiram

In the case of `CCN(CC)C(=S)SSC(=S)N(CC)CC` [disulfiram], the “urinary levels of disulfiram metabolites” value [1] is listed as “insignificant” and the “half-life of disulfiram in blood” value is listed as 4 min.
